Data reported in patent publication US20140227173A1, “CANCER TREATMENT WITH GAMMA-SECRETASE INHIBITORS” (The Johns Hopkins University, priority 2006, published 2014).
“Also recorded” adds a separate entry of the source.

Tests used:
Panc-1 = assay: Colony formation in soft agar (clonogenicity); format: cell-based, human; details: colony counts at two weeks
From the text: (§1) Specificity of the RNA interference is confirmed by downregulation of Notch1 transcript levels with the specific siRA, but not with the scrambled controls. […] Bar graphs represent colony counts at two weeks, with mean and standard deviations calculated from triplicate experiments.
(§2) Bar graphs represent colony counts at two weeks, with mean and standard deviations calculated from triplicate experiments.

Capan-1 = assay: Colony formation in soft agar (clonogenicity); format: cell-based, human
From the text: as §1, §2
(Top) Experimental scheme illustrating pre-treatment of pancreatic cancer cell lines with GSI-18, prior to plating for soft agar assays and subcutaneous injection in athymic mice. Treatment for 24 hours with GSI-18 or vehicle is followed by recovery in full serum for a further 24 hours minus the drug. Equal numbers of viable cells from the control and treated groups are then plated for colony assays in soft agar, or injected in nude mice. Of note, during the in vitro or in vivo assays, no further drug is administered. […] The dosage required for significant inhibition of clonogenicity varies between 2 μM (Capan-1) to 5 μM (E3LZ10.7). Bar graphs represent colony counts at two weeks, with mean and standard deviations calculated from triplicate experiments. (Left) Pre-treatment with GSI-18 inhibits tumorigenicity of Panc-1 pancreatic cancer cell line in athymic mice. […] Error bars represent standard deviation of five mice per arm.

DAOY [1] = assay: Double immunolabeling nestin / Ki67 (proliferation); format: cell-based; details: 2 μM, 48 hours
DAOY [2] = assay: Flow cytometric analysis of the cell cycle; format: cell-based; details: 2 μM
From the text: (§3) Double immunolabeling, using antibodies specific for nestin and for Ki67, a marker of proliferating cells, was used to determine effects of Notch pathway blockade on the cell cycle. […] While adult neural stem cells are generally thought to be relatively quiescent, during embryonic growth of the brain the stem cell compartment is highly proliferative. The high rate of division observed in stem-like MB cells may reflect their similarity to those in fetal germinal epithelium.
(§4) Flow cytometric analysis of S-phase fraction and cell cycle kinetics was performed using a FACSCalibur (Becton Dickinson, San Jose, Calif.) with CELL Quest, version 3.3 software (15). CD133 studies were performed using the same instrument, with antibodies from Miltenyi (Miltenyi Biotec, Auburn, Calif.) according to the manufacturer's instructions. Cells expressing levels of CD133 higher than those seen in IgG controls were considered positive. For analyses of side population, cells (10^6/ml) were incubated with Hoechst 33342 (3 μM, Molecular Probes, Carlsbad, Calif.) for 90 minutes at 37° C. in DMEM containing 2% FBS. Prior to analysis, cells were washed and resuspended in 2 μg/ml PI (Sigma, St. Louis, Mo.). Cells were analyzed on a LSR flow cytometer equipped with 424/44 nm band pass and 670 nm long pass optical filters (Omega Optical, Brattleboro, Vt.). […]

PFSK = assay: Flow cytometric analysis of the cell cycle; format: cell-based; details: 2 μM
From the text: as §3, §4

Akt = Akt phosphorylation and Caspase3 cleavage in GBM neurosphere cells; format: cell-based
Protocol: (A) Increase of cleaved Caspase 3 and loss of Akt phosphorylation is induced by 0.4 uMor higher levels of GSI-18, while overall levels of Akt and GAPDH are unchanged in DAOY medulloblastoma cells. (B) Cell death in 2 uM GSI-18 is reduced in a representative subclone of DAOY expressing activated Akt as compare to vector transfected cells. (C) Loss of Akt phosphorylation and activation of Caspase3 cleavage is induced by 2 μM or higher levels of GSI-18, while overall levels of Akt and GAPDH are unchanged in GBM neurosphere cells.
It has been shown that the Notch signaling pathway regulates normal stem cells in the Central Neural System (CNS), and that GBMs contain cancer stem cells (CSCs) with higher Notch activity (Cancer Research, 64:7011-21, 2004; Cancer Cell, 9:391-403, 2006). However, it has not been known if Notch pathway blockade could target CSCs in GBM. […] In the present study, we used GBM neurospheres to examine the effects of Notch pathway blockade in GBM. […] Furthermore, overexpression of an active form of Notch2 (NICD2) increases tumor growth in vitro.

DAOY [3] = assay: Clonogenic assay in soft agar; format: cell-based; details: equal number of viable cells seeded after 48 hours of treatment; 2 μM; vehicle 2.9%
Protocol: A clonogenic assay was used to determine whether cells capable of initiating anchorage-independent colonies were depleted by GSI-18. In vehicle-treated DAOY cultures, 2.9% of cells formed large colonies when seeded in soft agar (FIG. 7H). This number dropped to 0.26% when an equal number of viable cells were counted and seeded after 48 hours of treatment with GSI-18, and increased to 7.2% in the presence of constitutive Notch2 activation. Initiation of tumor xenografts was assayed next, a strategy used in several previous studies to examine the presence or absence of cancer stem cells (6-8). DAOY and DAOY:NICD2 cultures were treated with either 2 μM GSI-18 or vehicle alone, and the viable cells remaining after 48 hours counted using Trypan blue. […] To rule out the possibility that cells were alive but moribund following gamma-secretase inhibition, the experiment was repeated with cells counted after a recovery period.
The DAOY, PFSK, D283 and D425 Med cell lines were obtained from the American Type Culture Collection. […] Cell mass was measured using CellTITER assays according to the manufacturer's instructions (Promega, Madison, Wis.). Cell number and viability were assessed using the Guava PCA and Viacount reagent according to instructions (Guava Technologies, Heyward, Calif.). […] Soft agar assays were performed as previously described, with colonies counted using an automated reader (15).

GBM20913 = assay: Survival of mice bearing intracranial xenografts of pretreated GBM neurosphere cells; format: in vivo; details: vs vehicle (DMSO) treated cells

O=S(=O)(NC1C2CCC1Cc1ccccc1C2)c1cccs1 (stereo not drawn) [GSI-18, [11-endo]-N-(5,6,7,8,9,10-hexahydro-6,9-methanobenzo[α][8]annulen-11-yl)-thiophene-2-sulfonamide]
clonogenicity, colony formation in soft agar (Panc-1): significant inhibition of clonogencity | colony formation following pre-treatment (Capan-1; 24 hours pre-treatment, 24 hours recovery minus drug, colony counts at two weeks): Significant inhibition of colony formation | clonogenicity, colony formation in soft agar (Capan-1; colony counts at two weeks): significant inhibition of clonogencity | dosage required for significant inhibition of clonogenicity (Capan-1; pre-treatment): 2 µM | fraction of Ki67 positive cells in nestin-negative subpopulation (DAOY [1]): changed only slightly | proliferation (Ki67-positive cells) in nestin-positive subpopulation (DAOY [1]): significant reduction in the proliferation | G1/G0, S phase and G2/M cell fractions (DAOY [2]): increased the G1/G0 cell fraction and decreased the S phase and G2/M fractions | G1/G0, S phase and G2/M cell fractions (PFSK): increased the G1/G0 cell fraction and decreased the S phase and G2/M fractions | levels inducing loss of Akt phosphorylation and activation of Caspase3 cleavage (Akt; GBM neurosphere cells): ≥ 2 µM | expression of cleaved caspase 3 and phosphorylated Akt (Akt; GBM neurosphere lines): Increased expression of cleaved caspase 3 and reduced expression of phosphorelated Akt | cells forming large colonies in soft agar (DAOY [3]): 0.26% | survival of mice with intracranial xenografts from pretreated cells (GBM20913): prolonged survival; also recorded: longer survival
